Experimental data from patent publication US6414222B1, “Gene combinations for herbicide tolerance in corn” (Regents of the University of Minnesota, priority 1993, dated 2002).

How the values were obtained:
ACCase of S-2 tissue = ACCase of S-2 tissue (Zea mays, UniProt Q41743); assay: ACCase activity, herbicide inhibition, S-2 tissue; type: biochemical, maize; settings: on concentration basis
Method: Maize chloroplasts, isolated as described above, were suspended in buffer C (0.1 M Tricine-KOH, pH 8.0; 0.3 M glycerol, and 1 mM DTT) and homogenized in a glass tissue homogenizer. The disrupted chloroplast fraction was centrifuged at 16,000 g for 15 minutes. The supernatant was desalted on a Sephadex G-25 column (1.5×5 cm equilibrated with 0.1 M Tricine-KOH, pH 8.0; and 0.3 M glycerol) and assayed directly. ACCase activity (B. J. Nikolau et al., Arch. Biochem. Biophys., 211, 605-612 (1981)) was assayed at 30° C. in a 0.2 ml volume which contained 1 mM ATP, 3 mM acetyl coenzyme A, 2.5 mM MgCl2, 50 mM KCl, 0.5 mM DTT, and 15 mM [^14C]NaHCO3 (0.17 mCi/mmol). Reactions were initiated by addition of acetyl coenzyme A and stopped by addition of 25 μl of 12 N HCl. Product formation was determined by the radioactivity found in an acid stable fraction by liquid scintillation spectrometry. Enzyme activity was linear for 15 minutes.
Assays were conducted to determine if ACCase extracted from cell line S-2 was altered with respect to herbicide activity. ACCase activity of control tissue was 50% inhibited either by 1.5 μM sethoxydim, or by 0.25 μM haloxyfop. ACCase activity of S-2 tissue was inhibited 50% either by 70 μM sethoxydim, or by 1.8 μM haloxyfop, indicating at least 40-fold and 7-fold decreases in herbicide sensitivity on concentration basis, respectively.

[1] = tested on: progeny of 2167-9/2160-154 control plants; assay: Sethoxydim treatment of progeny seedlings, greenhouse; type: in vivo, maize; settings: seedlings treated at 3-4 leaf stage, rated two weeks after treatment
Method: Seeds obtained by the crossing procedure described above were viable and germinated normally. Seeds from thirty S-2 selfed plants and fifteen 2167-9/2160-154 control plants were planted in 25×50 cm trays of soil (28 seeds from each plant in one tray) and grown in the greenhouse. Seedlings at the 3-4 leaf stage were treated with 0.1, 0.44, and 1.1 kg/ha sethoxydim and evaluated for visual herbicide damage and shoot height. Based on visual rating of herbicide damage two weeks after treatment, selfed progeny of S-2 plants segregated approximately 1:2:1 for healthy, uninjured plants: to plants showing partial injury: to dead plants, respectively, at 0.44 and 1.1 kg/ha sethoxydim treatments. All control progeny of 2167-9/2160-154 control plants were killed by 0.1 kg/ha and greater levels of sethoxydim. […] Similar tests were conducted on progeny of S-2 plants crossed to the other inbreds. In all cases, these test cross progeny treated with 0.44 kg/ha sethoxydim segregated 1:1 for growing shoots versus dead shoots whether S-2 plants were used as male or female parents. […] In all cases, control plants crossed to the other inbreds were killed and therefore sethoxydim-sensitive.

[2] = tested on: plants regenerated from the S-2 cell line; assay: Whole plant sethoxydim spray, greenhouse, S-2 regenerated plants; type: in vivo, maize
Description: Groups of eight control (2167-9/2160-154 unselected) and eight S-2 plants were sprayed with either 0.0, 0.01, 0.05, 0.11, 0.22 or 0.44 kg/ha sethoxydim to determine whole plant sethoxydim-tolerance of greenhouse-grown plants. Control plants were killed by 0.05 kg/ha or more sethoxydim.

`CC(Oc1ccc(Oc2ncc(C(F)(F)F)cc2Cl)cc1)C(=O)O` (centres unmarked) [Haloxyfop, 2-[4-[[3-chloro-5-(trifluoromethyl)-2-pyridinyl]oxy]phenoxy]-propanoic acid] was tested, and the “Fold decrease in herbicide sensitivity of ACCase, S-2 versus control” value (ACCase of S-2 tissue) was at least 7 fold.
With `CCCC(=NOCC)C1=C(O)CC(CC(C)SCC)CC1=O` (centres unmarked) [Sethoxydim, 2-[1-(ethoxyimino)-butyl]-5-[2-(ethylthio)propyl]-3-hydroxy-2-cyclohexen-1-one] the “Rate that killed all control progeny” value [1] was at least 0.1 kg/ha, the “Survival of S-2 plants” value ([2]; 0.44 kg/ha sethoxydim) was “survived” and the “Shoot height of regenerated S-2 plants” value ([2]; 14 days after treatment with 0.44 kg/ha sethoxydim) was “only slightly reduced”. For the same compound, the “Fold more tolerance of S-2 plants than control” value ([2]; whole plant spray) was “at least 20 fold”.
